Paper PMC12136037, “Type II kinase inhibitors that target Parkinson’s disease–associated LRRK2” (Science Advances, 2025)

How the values were obtained:
Experiment in all cases: DSF 100 kinase selectivity screen;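 for dTm: compound tested at 20 µM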
Format in all cases: binding
[1] = target: T1, ~100 representative kinases (Homo sapiens, UniProt P48730); conditions: Protein CSNK1D; average of three replicates
T1 construct: Recombinant protein kinase domains with a concentration of 2 μM
Description: (§1) Recombinant protein kinase domains with a concentration of 2 μM were mixed with a 20 μM compound solution in dimethyl sulfoxide (DMSO), 20 mM Hepes (pH 7.5), and 500 mM NaCl. SYPRO Orange (5000×, Invitrogen) was added as a fluorescence probe (1μl/ml). Subsequently, temperature-dependent protein unfolding profiles were measured using the QuantStudio 5 realtime PCR machine (Thermo Fisher Scientific, Waltham, MA, USA). […] The temperature was raised with a step rate of 3°C/min. […] Differences in melting temperature are given as ΔTm values in degrees Celsius. […]

[2] = target: T2, ~100 representative kinases (Homo sapiens, UniProt P19784); conditions: Protein CK2A2; average of three replicates
T2 construct: Recombinant protein kinase domains with a concentration of 2 μM
T2 sequence (P19784 whole entry, the tested form may be a part): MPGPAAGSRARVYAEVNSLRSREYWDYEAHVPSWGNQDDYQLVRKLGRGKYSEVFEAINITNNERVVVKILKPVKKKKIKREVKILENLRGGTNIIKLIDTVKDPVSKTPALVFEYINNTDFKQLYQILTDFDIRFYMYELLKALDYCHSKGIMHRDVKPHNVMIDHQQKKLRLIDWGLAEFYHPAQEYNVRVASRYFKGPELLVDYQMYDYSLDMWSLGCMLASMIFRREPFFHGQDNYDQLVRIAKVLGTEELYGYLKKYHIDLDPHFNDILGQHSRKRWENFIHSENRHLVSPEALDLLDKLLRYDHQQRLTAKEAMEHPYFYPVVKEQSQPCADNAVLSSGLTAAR
Description: as §1

[3] = target: T3, ~100 representative kinases (Homo sapiens, UniProt Q9H2G2); conditions: Protein SLK; DSF; average of three replicates
T3 construct: Recombinant protein kinase domains with a concentration of 2 μM
T3 sequence (Q9H2G2 whole entry, the tested form may be a part): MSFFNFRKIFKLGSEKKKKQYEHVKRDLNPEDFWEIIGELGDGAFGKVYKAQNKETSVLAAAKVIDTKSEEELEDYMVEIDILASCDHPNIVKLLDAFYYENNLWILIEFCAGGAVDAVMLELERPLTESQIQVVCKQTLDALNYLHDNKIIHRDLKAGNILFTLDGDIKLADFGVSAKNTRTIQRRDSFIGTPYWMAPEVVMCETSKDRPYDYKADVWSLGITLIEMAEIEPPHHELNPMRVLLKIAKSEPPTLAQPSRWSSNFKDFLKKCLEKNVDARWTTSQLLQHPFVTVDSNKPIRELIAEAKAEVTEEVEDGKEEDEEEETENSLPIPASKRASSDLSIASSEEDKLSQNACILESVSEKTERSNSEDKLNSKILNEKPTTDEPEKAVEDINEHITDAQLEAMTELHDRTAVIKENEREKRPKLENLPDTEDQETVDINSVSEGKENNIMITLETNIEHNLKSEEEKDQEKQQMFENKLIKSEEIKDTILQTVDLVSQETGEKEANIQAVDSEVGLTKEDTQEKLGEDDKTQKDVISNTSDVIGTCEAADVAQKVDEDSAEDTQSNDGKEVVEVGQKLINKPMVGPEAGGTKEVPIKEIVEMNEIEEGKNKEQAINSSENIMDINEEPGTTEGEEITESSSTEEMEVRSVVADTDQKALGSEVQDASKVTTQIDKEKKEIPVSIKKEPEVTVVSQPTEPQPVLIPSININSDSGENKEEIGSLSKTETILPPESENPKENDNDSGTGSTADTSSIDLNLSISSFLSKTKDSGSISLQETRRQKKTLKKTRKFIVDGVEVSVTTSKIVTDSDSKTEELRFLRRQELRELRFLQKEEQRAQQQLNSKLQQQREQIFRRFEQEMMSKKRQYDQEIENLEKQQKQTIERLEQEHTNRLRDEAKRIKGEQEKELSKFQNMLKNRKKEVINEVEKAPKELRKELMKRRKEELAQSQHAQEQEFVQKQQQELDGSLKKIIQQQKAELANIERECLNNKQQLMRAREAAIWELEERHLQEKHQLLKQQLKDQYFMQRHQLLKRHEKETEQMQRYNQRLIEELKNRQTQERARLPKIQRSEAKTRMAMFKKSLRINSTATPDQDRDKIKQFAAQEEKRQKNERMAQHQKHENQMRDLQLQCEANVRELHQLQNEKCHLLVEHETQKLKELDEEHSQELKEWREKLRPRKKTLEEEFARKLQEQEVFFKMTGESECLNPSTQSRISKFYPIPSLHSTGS
Description: as §1

[4] = target: T4, ~100 representative kinases (Homo sapiens, UniProt P49759); conditions: Protein CLK1; average of three replicates
T4 construct: Recombinant protein kinase domains with a concentration of 2 μM
T4 sequence (P49759 whole entry, the tested form may be a part): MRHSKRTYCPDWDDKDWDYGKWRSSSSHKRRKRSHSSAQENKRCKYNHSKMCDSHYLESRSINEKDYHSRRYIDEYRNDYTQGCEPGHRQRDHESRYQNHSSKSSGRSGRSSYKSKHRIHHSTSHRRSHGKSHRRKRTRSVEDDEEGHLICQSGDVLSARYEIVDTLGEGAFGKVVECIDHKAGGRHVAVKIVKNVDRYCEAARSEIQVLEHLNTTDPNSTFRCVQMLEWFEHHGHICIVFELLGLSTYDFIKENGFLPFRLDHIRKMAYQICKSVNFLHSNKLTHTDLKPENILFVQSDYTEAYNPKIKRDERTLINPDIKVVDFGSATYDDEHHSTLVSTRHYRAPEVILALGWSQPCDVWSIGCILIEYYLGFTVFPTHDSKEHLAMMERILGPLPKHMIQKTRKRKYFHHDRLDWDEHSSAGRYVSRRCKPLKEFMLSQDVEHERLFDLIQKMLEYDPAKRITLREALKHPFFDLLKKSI
Description: as §1

[5] = target: T5, ~100 representative kinases (Homo sapiens, UniProt P07332); conditions: protein FESA; average of three replicates
T5 construct: Recombinant protein kinase domains with a concentration of 2 μM
T5 sequence (P07332 whole entry, the tested form may be a part): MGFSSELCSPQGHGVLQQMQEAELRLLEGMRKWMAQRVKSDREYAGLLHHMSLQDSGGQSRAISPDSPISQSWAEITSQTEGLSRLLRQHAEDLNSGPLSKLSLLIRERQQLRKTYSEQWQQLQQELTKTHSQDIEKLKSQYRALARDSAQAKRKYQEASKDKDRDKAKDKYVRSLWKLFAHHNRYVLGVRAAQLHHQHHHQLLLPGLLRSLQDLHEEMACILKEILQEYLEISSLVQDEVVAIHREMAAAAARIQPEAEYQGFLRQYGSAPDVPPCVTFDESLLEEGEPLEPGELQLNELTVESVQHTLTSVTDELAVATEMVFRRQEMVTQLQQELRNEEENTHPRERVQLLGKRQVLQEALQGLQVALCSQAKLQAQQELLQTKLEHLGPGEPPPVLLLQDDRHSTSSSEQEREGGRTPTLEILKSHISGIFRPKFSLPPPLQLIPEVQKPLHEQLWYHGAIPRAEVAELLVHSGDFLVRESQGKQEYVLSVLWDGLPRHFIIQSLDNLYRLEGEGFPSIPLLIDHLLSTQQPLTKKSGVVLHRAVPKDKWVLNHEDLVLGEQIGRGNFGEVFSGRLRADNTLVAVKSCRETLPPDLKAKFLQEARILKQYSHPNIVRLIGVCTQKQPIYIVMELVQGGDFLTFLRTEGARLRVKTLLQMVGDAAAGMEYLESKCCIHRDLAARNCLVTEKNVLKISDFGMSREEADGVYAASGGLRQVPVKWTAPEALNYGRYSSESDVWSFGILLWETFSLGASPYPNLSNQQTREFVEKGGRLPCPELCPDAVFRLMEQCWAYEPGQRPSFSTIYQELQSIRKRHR
Description: as §1

[6] = tested on: ~100 representative kinases; conditions: for dTm: Protein BRD, average of three replicates; for # >5K: number of proteins of the DSF panel with dTm >5K; for S (5 K) / share of screened kinases stabilized: DSF selectivity panel, thermal shift >5 K
Description: as §1

[7] = target: T6, ~100 representative kinases (Homo sapiens, UniProt O15075); conditions: Protein DCAMKL1; average of three replicates
T6 construct: Recombinant protein kinase domains with a concentration of 2 μM
T6 sequence (O15075 whole entry, the tested form may be a part): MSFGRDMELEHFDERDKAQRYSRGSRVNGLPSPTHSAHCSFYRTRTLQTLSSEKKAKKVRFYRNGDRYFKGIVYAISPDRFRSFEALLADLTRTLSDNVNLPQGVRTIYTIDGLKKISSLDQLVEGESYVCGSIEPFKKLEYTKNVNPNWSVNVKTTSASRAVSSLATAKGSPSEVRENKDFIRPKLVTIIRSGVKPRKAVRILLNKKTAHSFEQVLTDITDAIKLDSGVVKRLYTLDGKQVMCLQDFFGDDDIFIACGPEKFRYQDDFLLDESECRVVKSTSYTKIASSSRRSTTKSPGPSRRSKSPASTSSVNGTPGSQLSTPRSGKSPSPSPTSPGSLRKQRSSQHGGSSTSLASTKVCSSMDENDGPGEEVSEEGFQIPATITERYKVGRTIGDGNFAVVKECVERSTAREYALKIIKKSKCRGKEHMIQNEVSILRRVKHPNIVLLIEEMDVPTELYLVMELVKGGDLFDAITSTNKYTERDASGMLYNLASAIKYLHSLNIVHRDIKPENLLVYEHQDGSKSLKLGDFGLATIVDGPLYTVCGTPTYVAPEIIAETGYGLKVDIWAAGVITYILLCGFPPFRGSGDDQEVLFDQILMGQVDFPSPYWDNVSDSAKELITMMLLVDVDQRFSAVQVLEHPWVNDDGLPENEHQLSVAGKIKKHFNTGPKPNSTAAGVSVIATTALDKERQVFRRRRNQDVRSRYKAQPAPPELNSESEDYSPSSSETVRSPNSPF
Description: as §1

[8] = target: T7, ~100 representative kinases (Homo sapiens, UniProt Q5VT25); conditions: Protein CDC42BPA; average of three replicates
T7 construct: Recombinant protein kinase domains with a concentration of 2 μM
Description: as §1

[9] = target: T8, ~100 representative kinases (Homo sapiens, UniProt O94804); conditions: Protein STK10; DSF; average of three replicates
T8 construct: Recombinant protein kinase domains with a concentration of 2 μM
Description: as §1

[10] = target: T9, ~100 representative kinases (Homo sapiens, UniProt Q96PY6); conditions: protein NEK1; average of three replicates
T9 construct: Recombinant protein kinase domains with a concentration of 2 μM
T9 sequence (Q96PY6 1-1258): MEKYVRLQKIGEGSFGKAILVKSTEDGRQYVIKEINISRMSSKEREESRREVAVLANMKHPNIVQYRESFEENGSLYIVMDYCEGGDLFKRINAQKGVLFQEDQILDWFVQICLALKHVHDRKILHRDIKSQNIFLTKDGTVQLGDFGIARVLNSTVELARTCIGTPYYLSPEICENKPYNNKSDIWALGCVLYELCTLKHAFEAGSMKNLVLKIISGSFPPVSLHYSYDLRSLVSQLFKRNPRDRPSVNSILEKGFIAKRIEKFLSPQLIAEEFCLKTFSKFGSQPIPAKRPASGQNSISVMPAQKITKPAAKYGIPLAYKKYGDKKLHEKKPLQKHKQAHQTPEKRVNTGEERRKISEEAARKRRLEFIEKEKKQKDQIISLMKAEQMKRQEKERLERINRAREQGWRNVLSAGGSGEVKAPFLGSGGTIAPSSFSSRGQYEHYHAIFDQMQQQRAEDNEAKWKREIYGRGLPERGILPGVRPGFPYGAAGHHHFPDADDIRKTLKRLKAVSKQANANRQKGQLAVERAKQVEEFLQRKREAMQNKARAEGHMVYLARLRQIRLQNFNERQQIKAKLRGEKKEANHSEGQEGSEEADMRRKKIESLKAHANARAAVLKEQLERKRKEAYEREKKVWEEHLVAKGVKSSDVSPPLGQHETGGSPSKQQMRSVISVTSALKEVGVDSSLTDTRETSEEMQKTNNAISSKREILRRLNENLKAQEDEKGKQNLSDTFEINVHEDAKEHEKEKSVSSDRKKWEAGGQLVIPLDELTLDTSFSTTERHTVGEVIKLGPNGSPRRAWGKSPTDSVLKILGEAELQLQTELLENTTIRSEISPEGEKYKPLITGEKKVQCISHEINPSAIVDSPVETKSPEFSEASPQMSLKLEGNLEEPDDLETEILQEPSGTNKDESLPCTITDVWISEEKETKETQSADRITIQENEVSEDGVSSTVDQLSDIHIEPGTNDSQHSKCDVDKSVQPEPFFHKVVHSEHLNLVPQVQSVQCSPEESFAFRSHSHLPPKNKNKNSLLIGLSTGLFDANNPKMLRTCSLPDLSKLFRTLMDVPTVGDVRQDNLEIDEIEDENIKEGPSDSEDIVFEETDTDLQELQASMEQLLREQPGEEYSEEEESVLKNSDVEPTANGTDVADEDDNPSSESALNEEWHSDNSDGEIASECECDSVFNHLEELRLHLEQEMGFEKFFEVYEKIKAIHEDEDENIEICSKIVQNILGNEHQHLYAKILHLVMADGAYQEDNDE
Description: as §1

[11] = target: T10, ~100 representative kinases (Homo sapiens, UniProt Q9UEE5); conditions: Protein STK17A; DSF; average of three replicates
T10 construct: Recombinant protein kinase domains with a concentration of 2 μM
T10 sequence (Q9UEE5 1-414): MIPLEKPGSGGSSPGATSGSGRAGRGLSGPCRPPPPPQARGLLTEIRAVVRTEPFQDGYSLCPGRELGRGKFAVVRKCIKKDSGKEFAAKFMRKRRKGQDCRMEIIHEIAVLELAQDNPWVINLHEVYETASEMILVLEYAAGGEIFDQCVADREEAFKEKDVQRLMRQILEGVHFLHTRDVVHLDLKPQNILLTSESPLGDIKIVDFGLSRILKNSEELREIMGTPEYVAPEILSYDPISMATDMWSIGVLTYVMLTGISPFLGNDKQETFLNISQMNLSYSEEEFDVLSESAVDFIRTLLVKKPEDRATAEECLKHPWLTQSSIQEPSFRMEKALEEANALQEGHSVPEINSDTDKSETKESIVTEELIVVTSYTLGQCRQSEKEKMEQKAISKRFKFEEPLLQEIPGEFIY
Description: as §1

[12] = target: T11, ~100 representative kinases (Homo sapiens, UniProt P11362); conditions: protein FGFR1; average of three replicates
T11 construct: Recombinant protein kinase domains with a concentration of 2 μM
T11 sequence (P11362 22-822): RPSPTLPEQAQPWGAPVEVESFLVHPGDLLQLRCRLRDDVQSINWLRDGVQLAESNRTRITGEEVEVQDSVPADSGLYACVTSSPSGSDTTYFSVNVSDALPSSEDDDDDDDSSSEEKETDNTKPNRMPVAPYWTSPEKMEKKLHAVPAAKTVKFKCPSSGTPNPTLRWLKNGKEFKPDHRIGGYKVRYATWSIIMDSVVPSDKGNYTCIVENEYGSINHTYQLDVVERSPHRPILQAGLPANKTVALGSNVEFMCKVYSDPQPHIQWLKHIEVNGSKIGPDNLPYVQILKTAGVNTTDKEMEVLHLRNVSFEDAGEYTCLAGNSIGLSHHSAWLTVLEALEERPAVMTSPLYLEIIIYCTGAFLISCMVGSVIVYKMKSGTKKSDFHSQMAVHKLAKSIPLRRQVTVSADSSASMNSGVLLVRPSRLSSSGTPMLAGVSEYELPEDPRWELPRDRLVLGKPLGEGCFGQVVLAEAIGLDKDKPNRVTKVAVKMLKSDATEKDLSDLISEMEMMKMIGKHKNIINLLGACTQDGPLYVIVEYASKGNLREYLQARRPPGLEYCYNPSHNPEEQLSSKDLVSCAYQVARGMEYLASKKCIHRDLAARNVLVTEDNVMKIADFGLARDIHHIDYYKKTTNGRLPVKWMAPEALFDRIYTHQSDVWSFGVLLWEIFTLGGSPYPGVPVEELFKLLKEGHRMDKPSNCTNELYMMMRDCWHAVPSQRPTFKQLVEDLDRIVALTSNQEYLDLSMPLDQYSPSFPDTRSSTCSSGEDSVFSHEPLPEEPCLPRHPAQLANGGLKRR
Description: as §1

[13] = number of kinases with thermal shift >5 K divided by total number of kinases screened
[14] = selectivity score: # >5K divided by # of proteins tested in the DSF panel

T1 sequence (P48730 whole entry, the tested form may be a part): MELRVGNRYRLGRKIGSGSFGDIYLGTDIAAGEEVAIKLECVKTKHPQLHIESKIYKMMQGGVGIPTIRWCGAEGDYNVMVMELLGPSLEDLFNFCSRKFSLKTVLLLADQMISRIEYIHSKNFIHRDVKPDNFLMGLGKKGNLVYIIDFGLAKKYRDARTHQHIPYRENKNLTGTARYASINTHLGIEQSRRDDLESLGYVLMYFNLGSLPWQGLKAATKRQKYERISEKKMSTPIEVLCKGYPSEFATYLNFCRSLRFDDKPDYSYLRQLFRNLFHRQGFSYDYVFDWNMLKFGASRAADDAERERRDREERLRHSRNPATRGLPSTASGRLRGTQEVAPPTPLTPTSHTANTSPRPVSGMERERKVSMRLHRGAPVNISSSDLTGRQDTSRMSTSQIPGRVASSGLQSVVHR

Row | SMILES | dTm [1] | dTm [2] | dTm [3] | dTm [4] | dTm [5] | dTm [6] | S(5K) [6, 13] | # >5K [6] | S(5K) [6, 14] | dTm [7] | dTm [8] | dTm [9] | dTm [10] | dTm [11] | dTm [12] | S (5 K) / share of screened kinases stabilized [6] | number of kinases stabilized (>5 K) ([6]; Rebastinib 96 kinases screened, RN341 103 kinases screened)
1 | Cc1cc(F)ccc1NC(=O)C1(C(=O)Nc2cccc(-c3c[nH]c4ncnc(N5CCOCC5)c34)c2)CC1 [Compound 24] | 1.47 K | -0.63 K | 3.45 K | 5.49 K | 4.33 K | -0.87 K | 0.12 | 12 | 0.120 | -1.61 K | -1.23 K | 8.23 K | -0.14 K | -0.51 K | 0.81 K | – | –
2 | O=C(Nc1cccc(-c2c[nH]c3ncnc(N4CCOCC4)c23)c1)C1(C(=O)Nc2cc(Br)c(F)cc2F)CC1 [Compound 25] | -0.29 K | 1.70 K | 1.44 K | 4.99 K | 3.29 K | 1.03 K | 0.10 | 10 | 0.096 | 3.61 K | -0.57 K | 11.10 K | -6.30 K | -0.61 K | 0.52 K | – | –
3 | O=C(Nc1cccc(-c2c[nH]c3ncnc(N4CCOCC4)c23)c1)C1(C(=O)Nc2ccc(F)c(Br)c2F)CC1 [Compound 26] | 0.95 K | 4.72 K | 2.31 K | 6.34 K | 3.48 K | 1.43 K | 0.14 | 15 | 0.144 | 3.55 K | -0.44 K | 12.57 K | -0.27 K | -0.52 K | 0.99 K | 14% | –
4 | O=C(Nc1cc(F)cc(Br)c1)C1(C(=O)Nc2cccc(-c3c[nH]c4ncnc(N5CCOCC5)c34)c2)CC1 [Compound 27] | -0.55 K | 2.42 K | 3.29 K | 7.78 K | 3.58 K | 1.43 K | 0.09 | 9 | 0.087 | 4.07 K | 0.59 K | 10.11 K | -1.82 K | 1.21 K | 0.76 K | – | –
5 | CC(C)(C)c1cc(NC(=O)Nc2cccc(-c3c[nH]c4ncnc(N5CCOCC5)c34)c2)n(-c2ccc3ncccc3c2)n1 [Compound 28] | 1.22 K | -0.38 K | 13.85 K | 19.59 K | 9.54 K | -0.0106 K | 0.49 | 49 | 0.490 | 3.53 K | -0.65 K | 20.14 K | 0.13 K | 4.48 K | 8.37 K | 49% | –
6 | Cc1ccc(-n2nc(C(C)(C)C)cc2NC(=O)Nc2cccc(-c3c[nH]c4ncnc(N5CCOCC5)c34)c2)cc1 [Compound 29] | 0.95 K | -2.10 K | 13.65 K | 17.42 K | 0.00 K | -2.22 K | 0.36 | 36 | 0.356 | 2.98 K | -0.10 K | 20.37 K | -1.22 K | 3.34 K | 5.95 K | – | –
7 | Cc1ccc(-n2nc(C(C)(C)C)cc2NC(=O)Nc2cccc(-c3c[nH]c4nc(Cl)nc(N5CCOCC5)c34)c2)cc1 [Compound 30] | -2.91 K | -4.20 K | 8.39 K | 11.59 K | 3.55 K | -1.65 K | 0.10 | 10 | 0.099 | 2.36 K | 0.77 K | 13.38 K | -0.84 K | 0.28 K | 1.65 K | 10% | –
8 | CC(=O)N1CCN(c2nc(Cl)nc3[nH]cc(-c4cccc(NC(=O)Nc5cc(C(C)(C)C)nn5-c5ccc(C)cc5)c4)c23)CC1 [Compound 31] | -0.88 K | -3.51 K | 9.23 K | 10.57 K | 0.00 K | -3.84 K | 0.15 | 15 | 0.149 | 2.11 K | 0.50 K | 13.28 K | -1.20 K | -0.15 K | 1.76 K | – | –
9 | CCSc1nc(NC)c2c(-c3cccc(NC(=O)Nc4cc(C(C)(C)C)nn4-c4ccc(C)cc4)c3)c[nH]c2n1 [Compound 32] | 0.85 K | -0.62 K | 5.13 K | 5.52 K | 3.81 K | -0.35 K | 0.10 | 10 | 0.097 | 0.67 K | 0.69 K | 8.61 K | -1.34 K | -0.0646 K | 0.60 K | – | 10
